Assay results: ChEMBL document CHEMBL4610091, “Antimalarial 9-Methoxystrobilurins, Oudemansins, and Related Polyketides from Cultures of Basidiomycete Favolaschia Species” (J Nat Prod, 2020)
pIC50: −log10 of the molar value.

How the values were obtained:
Vero = test: Cytotoxicity against African green monkey Vero cells by green fluorescent protein-based assay; assay type: cell-based; conditions: Chlorocebus sabaeus
MCF7 = test: Cytotoxicity against human MCF7 cells by resazurin microplate assay; assay type: functional, cell-based
NCI-H187 = test: Cytotoxicity against human NCI-H187 cells by resazurin microplate assay; assay type: functional, cell-based
Plasmodium falciparum = test: Antiplasmodial activity against Plasmodium falciparum K1 assessed as reduction in [3H]-hypoxanthine after 42 hrs by microculture radioisotope technique; assay type: functional, organism-based
[1] = Selectivity index, ratio of IC50 for African green monkey Vero cells to IC50 for Plasmodium falciparum K1; assay type: toxicity; conditions: read-out: Ratio IC50

## C=CC(C)(C)O[C@H]1COc2cc(C(=O)OC)c(C)c(OC)c2OC1(C)C
Vero
  pIC50: 4.36
MCF7
  pIC50: < 3.95
NCI-H187
  pIC50: 4.26
Plasmodium falciparum
  pIC50: 5.08

## COC(=O)c1cc(-c2ccc3c(c2)O[C@@]2(CO3)O[C@H](C=C(C)C)OC2(C)C)cc(OC)c1C
Vero
  pIC50: 4.87
NCI-H187
  pIC50: 4.27
Plasmodium falciparum
  pIC50: < 4.66

## CO/C=C(/C(=O)OC)C(C)C(=O)/C=C/c1ccc2c(c1)O[C@@]1(CO2)O[C@H](C=C(C)C)OC1(C)C (mixture of isomers)
Vero
  pIC50: 4.74
MCF7
  pIC50: 4.63
[1]
  selectivity ratio: 1.7
NCI-H187
  pIC50: 5.24
Plasmodium falciparum
  pIC50: 4.97

## COC(=O)/C(COC(=O)Cc1ccccc1)=C(/C)[C@H](/C=C/c1ccc(Cl)c(OC)c1)OC
Vero
  pIC50: 4.26
MCF7
  pIC50: < 3.96
NCI-H187
  pIC50: 4.42
Plasmodium falciparum
  pIC50: < 4.66

## C[C@H]1[C@@H](O)O[C@@H]2O[C@@]3(C)CC[C@H]4[C@H](C)CC[C@@H]1[C@@]24OO3 [ARTENIMOL]
Plasmodium falciparum
  pIC50: 8.51

## Cc1c2ccncc2c(C)c2c1[nH]c1ccccc12 [ELLIPTECINE]
Vero
  pIC50: 5.13
NCI-H187
  pIC50: 5.03

## CO/C=C(/C(=O)OC)[C@H](C)[C@H](/C=C/c1cccc(OC)c1)OC
Vero
  pIC50: 3.95
MCF7
  pIC50: < 3.81
[1]
  selectivity ratio: 10.9
NCI-H187
  pIC50: 4.01
Plasmodium falciparum
  pIC50: 4.99

## C/C(=C/[C@H](O)[C@H](O)c1ccccc1)CCO
Vero
  pIC50: < 3.65
MCF7
  pIC50: < 3.65
NCI-H187
  pIC50: < 3.65
Plasmodium falciparum
  pIC50: < 4.35

## CO/C=C(/C(=O)OC)[C@H](C)[C@@H](O)/C=C/c1ccccc1
Vero
  pIC50: < 3.74
NCI-H187
  pIC50: 3.80
Plasmodium falciparum
  pIC50: < 4.44

## CO\C=C(C(=O)OC)/C(C)=C(\C=C\c1ccc2c(c1)O[C@@]1(CO2)O[C@H](C=C(C)C)OC1(C)C)OC
Vero
  pIC50: < 3.99
MCF7
  pIC50: < 3.99
[1]
  selectivity ratio: > 736
NCI-H187
  pIC50: 5.48
Plasmodium falciparum
  pIC50: 6.85

## CO/C=C(/C(=O)OC)C(C)C(=O)/C=C/c1ccc2c(c1)OC(C)(C)[C@@H](OCC=C(C)C)CO2 (some centres undefined)
Vero
  pIC50: 4.17
MCF7
  pIC50: < 3.96
[1]
  selectivity ratio: 16.3
NCI-H187
  pIC50: 5.03
Plasmodium falciparum
  pIC50: 5.38

## C=CC(C)(C)O[C@H]1COc2ccc(/C=C/C(OC)=C(C)\C(=C/OC)C(=O)OC)cc2OC1(C)C
Vero
  pIC50: 4.01
MCF7
  pIC50: 4.36
[1]
  selectivity ratio: 1100
NCI-H187
  pIC50: 6.82
Plasmodium falciparum
  pIC50: 7.05

## CC(=O)OCC/C(C)=C\[C@H](O)[C@H](O)c1ccccc1
Vero
  pIC50: < 3.72
MCF7
  pIC50: < 3.72
NCI-H187
  pIC50: < 3.72
Plasmodium falciparum
  pIC50: < 4.42

## COC(=O)/C(CO)=C(/C)[C@H](/C=C/c1ccc(Cl)c(OC)c1)OC
Vero
  pIC50: 3.91
MCF7
  pIC50: < 3.83
NCI-H187
  pIC50: 3.85
Plasmodium falciparum
  pIC50: < 4.54

## C=CC(C)(C)O[C@H]1COc2ccc(/C=C/[C@H](OC)[C@@H](C)/C(=C\OC)C(=O)OC)cc2OC1(C)C
Vero
  pIC50: 4.61
MCF7
  pIC50: < 3.98
[1]
  selectivity ratio: 102
NCI-H187
  pIC50: 6.02
Plasmodium falciparum
  pIC50: 6.62

## CO/C=C(/C(=O)OC)[C@H](C)[C@H](/C=C/c1ccc2c(c1)OC(C)(C)[C@@H](OCC=C(C)C)CO2)OC
Vero
  pIC50: 4.55
MCF7
  pIC50: < 3.98
[1]
  selectivity ratio: 58.8
NCI-H187
  pIC50: 5.66
Plasmodium falciparum
  pIC50: 6.32

## COC(=O)/C(CO)=C(/C)[C@H](/C=C/c1ccccc1)OC
Vero
  pIC50: < 3.74
MCF7
  pIC50: < 3.74
NCI-H187
  pIC50: < 3.74
Plasmodium falciparum
  pIC50: < 4.44

## O[C@@H](c1cc(C(F)(F)F)nc2c(C(F)(F)F)cccc12)[C@H]1CCCCN1
Plasmodium falciparum
  pIC50: 7.28

## C[C@]1([C@@H]2Cc3cc(C(N)=O)cc(Cl)c3O2)CCC(=O)O1
Vero
  pIC50: < 3.77
MCF7
  pIC50: < 3.77
NCI-H187
  pIC50: < 3.77
Plasmodium falciparum
  pIC50: < 4.47

## C/C(=C\c1ccccc1)[C@@H](O)C(C)(C)C(=O)O
Vero
  pIC50: < 3.67
MCF7
  pIC50: < 3.67
NCI-H187
  pIC50: < 3.67
Plasmodium falciparum
  pIC50: < 4.37

## CO\C=C(C(=O)OC)/C(C)=C\C=C\c1ccc2c(c1)OC(C)(C)[C@@H](OCC=C(C)C)CO2
Vero
  pIC50: < 3.95
MCF7
  pIC50: 4.61
[1]
  selectivity ratio: > 135
NCI-H187
  pIC50: 5.31
Plasmodium falciparum
  pIC50: 6.08

## CO/C=C(/C(=O)OC)[C@H](C)[C@H](/C=C/c1ccc2c(c1)OC(C)(C)[C@@H](O)CO2)OC
Vero
  pIC50: < 3.91
MCF7
  pIC50: < 3.91
[1]
  selectivity ratio: > 5.2
NCI-H187
  pIC50: 4.24
Plasmodium falciparum
  pIC50: 4.65

## COC(=O)c1cc(-c2ccccc2)cc(OC)c1C
Vero
  pIC50: 4.13
MCF7
  pIC50: < 3.71
NCI-H187
  pIC50: 3.73
Plasmodium falciparum
  pIC50: < 4.41

## CO/C=C(/C(=O)OC)C(C)C(=O)/C=C/c1ccccc1 (centres undefined)
Vero
  pIC50: < 3.74
MCF7
  pIC50: < 3.74
NCI-H187
  pIC50: 4.22
Plasmodium falciparum
  pIC50: < 4.44

## C/C(=C\c1ccccc1)[C@@H](O)C(C)(C)O
Vero
  pIC50: < 3.62
MCF7
  pIC50: < 3.62
NCI-H187
  pIC50: < 3.62
Plasmodium falciparum
  pIC50: < 4.32
